This note sets out measurements from DBAASP.

Test systems include Escherichia coli BW25113; Escherichia coli AS1.349; Bacillus cereus AS1.126.
Common to all, as to assay: ≥ marks a high value that may be exact or a test limit, other limits are often not marked, values filed in µg/mL are converted to µM
The test system of test [1] is Staphylococcus aureus ATCC 15752.
Test [2] relates to Escherichia coli ATCC 27325.
The test system of test [3] is Salmonella enterica subsp. enterica serovar Enteritidis ATCC 13076.
The test system of test [4] is Candida albicans ATCC 10231.
Test [5] has as its system Streptococcus mutans ATCC 25175.
Test [6] has as its system Saccharomyces cerevisiae ATCC 44774.
For test [7], the system named is Pseudomonas putida ATCC 17426.
The test system of test [8] is Bacillus subtilis ATCC 62037.
Test [9] deals with Cryptococcus neoformans ATCC 34881.
The subject of test [10] is Candida albicans ATCC 90028.
Test [11] concerns Pseudomonas aeruginosa ATCC 9027.
The subject of test [12] is Staphylococcus aureus USA 100.
In test [13] the test system is Staphylococcus aureus USA 300.
For test [14], the system named is Enterococcus faecium CGMCC 1.2334.
Test [15] concerns Enterococcus faecalis CGMCC 1.595.
The test system of test [16] is Lactococcus lactis AS1.1690.
Test [17] has as its system Pseudomonas aeruginosa CGMCC 1.860.
Test [18] concerns Staphylococcus aureus AS1.72.
Test [19] relates to Cronobacter sakazakii DPC 6440.
For test [20], the system named is Listeria monocytogenes LO28.

In brackets after ≈: the same amount, converted by molar mass.

On to `CC(C)[C@H](NC(=O)[C@H](CCCCN)NC(=O)CNC(=O)CNC(=O)[C@H](CCC(N)=O)NC(=O)[C@H](CCCCN)NC(=O)CNC(=O)[C@H](CCCN=C(N)N)NC(=O)CNC(=O)[C@@H](N)CCCCN)C(=O)N[C@@H](CCCN=C(N)N)C(=O)N[C@@H](C)C(=O)N[C@@H](CCCCN)C(=O)N[C@@H](C)C(=O)N[C@@H](CCCCN)C(=O)O` [KGRGKQGGKVRAKAK], for which the minimal inhibitory concentration (MIC) in [1] is 2.55 µM (≈ 4 µg/mL); in [2], 0.637 µM (≈ 1 µg/mL); in [3] it was 2.55 µM (≈ 4 µg/mL); in [4], 0.637 µM (≈ 1 µg/mL); in test [5], 1.27 µM (≈ 2 µg/mL); in [6], 0.637 µM (≈ 1 µg/mL). The MIC in test [7], in [8] and in [9] was 0.637 µM (≈ 1 µg/mL) in each case.

`CC(=O)N[C@@H](CCCCN)C(=O)N1CCC[C@H]1C(=O)N[C@H](C(N)=O)C(C)C` [KPV]: the MIC in test [10] was at least 100 µM; in [11] it was over 100 µM; in test [12], at least 100 µM; in test [13] it was at least 100 µM.

`CC(C)[C@H](NC(=O)[C@H](CCCCN)NC(=O)CNC(=O)CNC(=O)[C@H](CCC(N)=O)NC(=O)[C@H](CCCCN)NC(=O)CNC(=O)[C@H](CCCN=C(N)N)NC(=O)[C@@H](N)CCCCN)C(=O)N[C@@H](CCCN=C(N)N)C(=O)N[C@@H](C)C(=O)N[C@@H](CCCCN)C(=O)N[C@@H](C)C(=O)N[C@@H](CCCCN)C(=O)N[C@H](C(=O)N[C@@H](CCCN=C(N)N)C(=O)N[C@@H](CO)C(=O)N[C@@H](CO)C(=O)O)[C@@H](C)O` [KRGKQGGKVRAKAKTRSS]: the MIC in test [1] came out at 16.5 µM (≈ 32 µg/mL); in [2] it was 4.12 µM (≈ 8 µg/mL); in test [3] it was 8.23 µM (≈ 16 µg/mL); in [4], 8.23 µM (≈ 16 µg/mL); in test [5], 16.5 µM (≈ 32 µg/mL); in test [6] it was 8.23 µM (≈ 16 µg/mL). The minimal inhibitory concentration (MIC) in test [7] came out at 8.23 µM (≈ 16 µg/mL); in [8], 8.23 µM (≈ 16 µg/mL); in test [9], 4.12 µM (≈ 8 µg/mL).

In the case of `CC(C)C[C@H](NC(=O)CNC(=O)[C@H](C)NC(=O)[C@@H](N)CCCN=C(N)N)C(=O)N[C@@H](CCC(N)=O)C(=O)N[C@@H](Cc1ccccc1)C(=O)N1CCC[C@H]1C(=O)N[C@H](C(=O)NCC(=O)N[C@@H](CCCCN)C(=O)N[C@@H](CC(C)C)C(=O)N[C@@H](CC(C)C)C(=O)N[C@@H](CCCCN)C(=O)N[C@@H](CCCCN)C(=O)N[C@@H](CC(C)C)C(=O)N[C@@H](CC(C)C)C(=O)N[C@@H](CCCCN)C(=O)N[C@@H](CCCN=C(N)N)C(=O)N[C@@H](CC(C)C)C(=O)N[C@@H](CCCCN)C(=O)N[C@@H](CCCN=C(N)N)C(=O)O)C(C)C` [RAGLQFPVGKLLKKLLKRLKR], the MIC in test [1] was 0.812 µM (≈ 2 µg/mL); in test [2] it was 0.812 µM (≈ 2 µg/mL); in [3], 0.406 µM (≈ 1 µg/mL); in test [4], 0.812 µM (≈ 2 µg/mL); in test [5] it was 0.812 µM (≈ 2 µg/mL); in test [6], 0.812 µM (≈ 2 µg/mL). For the same molecule, the minimum inhibitory concentration (MIC) in test [7], in test [8] and in test [9] was 0.812 µM (≈ 2 µg/mL) each time.

For `CC[C@H](C)[C@H](NC(=O)[C@@H]1CCCN1C(=O)[C@@H]1CCCN1C(=O)[C@H](CCCN=C(N)N)NC(=O)[C@H](Cc1ccccc1)NC(=O)[C@@H](N)CCCN=C(N)N)C(=O)N[C@@H](CCCN=C(N)N)C(=O)N[C@@H](CCCN=C(N)N)C(=O)N1CCC[C@H]1C(=O)N1CCC[C@H]1C(=O)N[C@H](C(=O)N[C@@H](CCCN=C(N)N)C(=O)N1CCC[C@H]1C(=O)N1CCC[C@H]1C(=O)N[C@@H](Cc1ccccc1)C(=O)N[C@@H](Cc1ccc(O)cc1)C(=O)N[C@@H](Cc1c[nH]c2ccccc12)C(=O)O)[C@@H](C)CC` [RFRPPIRRPPIRPPFYW], the minimal inhibitory concentration (MIC) in the test on Escherichia coli BW25113 stood at 16 µM (≈ 36 µg/mL).

Consider `C[C@H](NC(=O)[C@H](CCCN=C(N)N)NC(=O)[C@H](Cc1cnc[nH]1)NC(=O)[C@H](Cc1c[nH]c2ccccc12)NC(=O)[C@H](Cc1ccccc1)NC(=O)[C@H](CCCN=C(N)N)NC(=O)[C@@H](N)CCCN=C(N)N)C(=O)N[C@@H](Cc1cnc[nH]1)C(=O)O` [RRFWHRAH], for which the MIC (in the test with Escherichia coli AS1.349; in test [14]; in [15]; against Bacillus cereus AS1.126; in test [16]; in test [17]) was at least 100 µM throughout. The minimal inhibitory concentration (MIC) in test [18] is at least 100 µM.

Consider `CC(C)C[C@H](NC(=O)[C@H](CCCCN)NC(=O)[C@H](CCCN=C(N)N)NC(=O)[C@H](Cc1cnc[nH]1)NC(=O)[C@H](C)NC(=O)[C@H](CCCN=C(N)N)NC(=O)[C@H](Cc1cnc[nH]1)NC(=O)[C@H](Cc1c[nH]c2ccccc12)NC(=O)[C@H](Cc1ccccc1)NC(=O)[C@H](CCCN=C(N)N)NC(=O)[C@H](CCCN=C(N)N)NC(=O)[C@H](Cc1c[nH]c2ccccc12)NC(=O)[C@H](Cc1cnc[nH]1)NC(=O)[C@H](CCCN=C(N)N)NC(=O)[C@H](Cc1c[nH]c2ccccc12)NC(=O)[C@@H](NC(=O)[C@H](CCCCN)NC(=O)[C@@H](N)CO)C(C)C)C(=O)O` [SKVWRHWRRFWHRAHRKL], for which the MIC in the test with Escherichia coli AS1.349 is 6.25 µM (≈ 15.9 µg/mL); in test [14], 3.13 µM (≈ 7.96 µg/mL); in [15], 1.56 µM (≈ 3.97 µg/mL); against Bacillus cereus AS1.126, 3.13 µM (≈ 7.96 µg/mL); in test [16], 3.13 µM (≈ 7.96 µg/mL); in test [17], 1.56 µM (≈ 3.97 µg/mL). Also, the MIC in test [18] came out at 3.13 µM (≈ 7.96 µg/mL).

For `CC(C)[C@H](N)C(=O)N[C@@H](Cc1c[nH]c2ccccc12)C(=O)N[C@@H](CCCN=C(N)N)C(=O)N[C@@H](Cc1cnc[nH]1)C(=O)N[C@@H](Cc1c[nH]c2ccccc12)C(=O)N[C@@H](CCCN=C(N)N)C(=O)N[C@@H](CCCN=C(N)N)C(=O)N[C@@H](Cc1ccccc1)C(=O)N[C@@H](Cc1c[nH]c2ccccc12)C(=O)N[C@@H](Cc1cnc[nH]1)C(=O)N[C@@H](CCCN=C(N)N)C(=O)O` [VWRHWRRFWHR], the MIC against Escherichia coli AS1.349 was 6.25 µM (≈ 10.8 µg/mL); in test [14] it was 3.13 µM (≈ 5.39 µg/mL); in test [15], 3.13 µM (≈ 5.39 µg/mL); in the test with Bacillus cereus AS1.126, 3.13 µM (≈ 5.39 µg/mL); in [16] it was 6.25 µM (≈ 10.8 µg/mL); in test [17], 3.13 µM (≈ 5.39 µg/mL). For the same molecule, in [18], the MIC came out at 3.13 µM (≈ 5.39 µg/mL).

As to `CC[C@H](C)[C@H](NC(=O)[C@@H](N)Cc1c[nH]c2ccccc12)C(=O)N[C@@H](CCC(N)=O)C(=O)N1CCC[C@H]1C(=O)N[C@@H](C)C(=O)N[C@H](C(=O)N[C@@H](C)C(=O)N[C@H](C(=O)N[C@H](C(=O)N1CCC[C@H]1C(=O)N[C@@H](Cc1ccc(O)cc1)C(=O)N[C@H](C(=O)N[C@@H](C)C(=O)N[C@@H](Cc1ccc(O)cc1)C(=O)N[C@@H](CC(C)C)C(=O)O)C(C)C)[C@@H](C)CC)C(C)C)[C@@H](C)O` [WIQPATAVIPYVAYL], the MIC was at least 625 µM in test [19] and at least 156 µM in test [20].

Take `CC[C@H](C)[C@H](NC(=O)[C@@H](N)Cc1c[nH]c2ccccc12)C(=O)N[C@@H](CCC(N)=O)C(=O)N1CCC[C@H]1C(=O)N[C@@H](CCCCN)C(=O)N[C@H](C(=O)N[C@@H](CCCCN)C(=O)N[C@H](C(=O)N[C@H](C(=O)N1CCC[C@H]1C(=O)N[C@@H](Cc1c[nH]c2ccccc12)C(=O)N[C@@H](Cc1c[nH]c2ccccc12)C(=O)N[C@@H](Cc1c[nH]c2ccccc12)C(=O)N[C@@H](Cc1c[nH]c2ccccc12)C(=O)N[C@@H](Cc1c[nH]c2ccccc12)C(=O)O)[C@@H](C)CC)C(C)C)[C@@H](C)O` [WIQPKTKVIPWWWWW]: the figures for the MIC in [19] and in [20] were at least 78.1 µM and 4.88 µM (≈ 10.5 µg/mL), respectively.

With `CC[C@H](C)[C@H](NC(=O)[C@@H](N)Cc1c[nH]c2ccccc12)C(=O)N[C@@H](CCC(N)=O)C(=O)N1CCC[C@H]1C(=O)N[C@@H](CCCCN)C(=O)N[C@H](C(=O)N[C@@H](CCCCN)C(=O)N[C@H](C(=O)N[C@H](C(=O)N1CCC[C@H]1C(=O)O)[C@@H](C)CC)C(C)C)[C@@H](C)O` [WIQPKTKVIP], the minimal inhibitory concentration (MIC) in test [19] was at least 625 µM; in [20], at least 156 µM.

For `NC(=O)[C@H](Cc1c[nH]c2ccccc12)NC(=O)[C@H](Cc1c[nH]c2ccccc12)NC(=O)[C@H](Cc1c[nH]c2ccccc12)NC(=O)[C@@H](N)Cc1c[nH]c2ccccc12` [WWWW], the MIC in test [12] is at least 100 µM.
